Measured values reported in the supplement of paper PMC10307832.

Legend:
Assay in all cases: relative viability (nuclei count vs DMSO), 5 days (fraction); higher = more cells survive
Crenolanib + OSI-027 = compound: CC1(COc2ccc3c(c2)ncn3-c2ccc3cccc(N4CCC(N)CC4)c3n2)COC1 [Crenolanib] + COc1cccc2cc(-c3nc([C@H]4CC[C@H](C(=O)O)CC4)n4ncnc(N)c34)[nH]c12 [OSI-027] (partner 0.5 µM)
Method in brief: (§1)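 Dosing by pin tool came one day after lung cancer cell lines were seeded in 1536-well plates, using either one drug or a fixed anchor-drug dose plus five library-drug doses (not always all listed) in √10 steps. After 5 days, nuclei were counted on 4× images. Relative viability is treated-well nuclei count divided by vehicle-well nuclei count, and values are medians of duplicate plates.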

Tivantinib + Lapatinib = compound: O=C1NC(=O)[C@@H](c2cn3c4c(cccc24)CCC3)[C@@H]1c1c[nH]c2ccccc12 [Tivantinib] + CS(=O)(=O)CCNCc1ccc(-c2ccc3ncnc(Nc4ccc(OCc5cccc(F)c5)c(Cl)c4)c3c2)o1 [Lapatinib] (partner 2 µM)
Method in brief: as §1

Tivantinib + Dasatinib = compound: O=C1NC(=O)[C@@H](c2cn3c4c(cccc24)CCC3)[C@@H]1c1c[nH]c2ccccc12 [Tivantinib] + Cc1nc(Nc2ncc(C(=O)Nc3c(C)cccc3Cl)s2)cc(N2CCN(CCO)CC2)n1 [Dasatinib] (partner 0.075 µM)
Method in brief: as §1

Crenolanib + Pictilisib = compound: CC1(COc2ccc3c(c2)ncn3-c2ccc3cccc(N4CCC(N)CC4)c3n2)COC1 [Crenolanib] + CS(=O)(=O)N1CCN(Cc2cc3nc(-c4cccc5[nH]ncc45)nc(N4CCOCC4)c3s2)CC1 [Pictilisib] (partner 1 µM)
Method in brief: as §1

Row | Cell Line | relative viability (Crenolanib + OSI-027; first compound 0.01 µM) | relative viability (Crenolanib + OSI-027; first compound 0.03162 µM) | relative viability (Crenolanib + OSI-027; first compound 0.1 µM) | relative viability (Crenolanib + OSI-027; first compound 0.3162 µM) | relative viability (Crenolanib + OSI-027; first compound 1 µM) | relative viability (Tivantinib + Lapatinib; first compound 0.01 µM) | relative viability (Tivantinib + Lapatinib; first compound 0.03162 µM) | relative viability (Tivantinib + Lapatinib; first compound 0.1 µM) | relative viability (Tivantinib + Lapatinib; first compound 0.3162 µM) | relative viability (Tivantinib + Dasatinib; first compound 0.01 µM) | relative viability (Tivantinib + Dasatinib; first compound 0.03162 µM) | relative viability (Tivantinib + Dasatinib; first compound 0.1 µM) | relative viability (Tivantinib + Dasatinib; first compound 0.3162 µM) | relative viability (Crenolanib + Pictilisib; first compound 0.01 µM) | relative viability (Crenolanib + Pictilisib; first compound 0.03162 µM) | relative viability (Crenolanib + Pictilisib; first compound 0.1 µM) | relative viability (Crenolanib + Pictilisib; first compound 0.3162 µM) | relative viability (Crenolanib + Pictilisib; first compound 1 µM)
1 | NCI-H596 | 0.866 | 0.84 | 0.696 | 0.703 | 0.731 | 1.04 | 1.05 | 1.01 | 0.964 | 0.486 | 0.543 | 0.635 | 0.619 | 0.351 | 0.398 | 0.342 | 0.353 | 0.397
2 | NCI-H520 | 0.245 | 0.284 | 0.311 | 0.306 | 0.318 | 0.893 | 0.822 | 0.638 | 0.795 | 0.204 | 0.185 | 0.193 | 0.221 | 0.267 | 0.324 | 0.326 | 0.295 | 0.301
3 | EKVX | 0.737 | 0.78 | 0.69 | 0.683 | 0.737 | 0.194 | 0.225 | 0.225 | 0.176 | 0.615 | 0.431 | 0.618 | 0.315 | 0.466 | 0.491 | 0.364 | 0.487 | 0.442
4 | NCI-H358 | 0.849 | 0.777 | 0.675 | 0.744 | 0.565 | 0.53 | 0.42 | 0.418 | 0.403 | 0.128 | 0.165 | 0.143 | 0.109 | 0.4 | 0.309 | 0.332 | 0.326 | 0.311
5 | H3255 | 0.586 | 0.544 | 0.514 | 0.573 | 0.588 | 0.275 | 0.234 | 0.294 |  | 0.35 | 0.38 | 0.361 |  | 0.461 | 0.475 | 0.479 | 0.559 | 0.496
6 | NCI-H1650 | 0.666 | 0.696 | 0.691 | 0.667 | 0.46 | 0.879 | 0.547 | 0.702 | 0.861 | 0.41 | 0.289 | 0.276 | 0.313 | 0.731 | 0.68 | 0.583 | 0.472 | 0.327
7 | NCI-H1395 | 0.749 | 0.626 | 0.666 | 0.605 | 0.6 | 1.23 | 1.18 | 0.981 | 0.992 | 0.396 | 0.339 | 0.437 | 0.434 | 0.655 | 0.562 | 0.708 | 0.789 | 0.553
8 | NCI-H2228 | 0.6 | 0.495 | 0.513 | 0.687 | 0.578 | 1.12 | 1.08 | 1.07 | 0.676 |  | 0.484 | 0.539 | 0.352 | 0.372 | 0.397 | 0.272 | 0.491 | 0.361
9 | NCI-H2023 | 0.466 | 0.426 | 0.378 | 0.434 | 0.292 | 0.884 | 0.735 | 0.703 | 0.577 | 0.678 | 0.564 | 0.506 | 0.521 | 0.264 | 0.288 | 0.233 | 0.278 | 0.205
10 | NCI-H3122 | 1.01 | 0.974 | 0.962 | 1.17 | 1.06 | 1.08 | 0.94 | 0.973 | 1.01 | 0.808 | 0.808 | 0.788 | 0.686 | 0.549 | 0.497 | 0.561 | 0.732 | 0.738
11 | NCI-H1792 | 0.756 | 0.82 | 0.691 | 0.723 | 0.647 | 0.91 | 0.939 | 0.822 | 0.964 | 0.902 | 0.714 | 0.675 | 0.481 | 0.32 | 0.34 | 0.29 | 0.269 | 0.195
12 | HCC-827 | 0.793 | 0.691 | 0.742 | 0.885 | 0.821 | 0.213 | 0.211 | 0.176 | 0.165 | 0.237 | 0.295 | 0.375 | 0.131 | 1.12 | 1.16 | 0.961 | 0.94 | 1.03
13 | LU99A | 0.305 | 0.318 | 0.257 | 0.331 | 0.264 | 0.987 | 1.14 | 0.889 | 0.905 | 0.533 | 0.64 | 0.527 | 0.402 | 0.37 | 0.324 | 0.325 | 0.393 | 0.287
14 | LC-2-ad | 0.939 | 0.793 | 0.792 | 0.706 | 0.554 | 1.03 | 0.929 | 0.928 | 1.06 | 0.554 | 0.527 | 0.641 | 0.477 | 0.5 | 0.446 | 0.434 | 0.465 | 0.375
15 | NCI-H322M | 0.648 | 0.574 | 0.575 | 0.634 | 0.534 | 0.568 | 0.488 | 0.609 | 0.588 | 0.25 | 0.234 | 0.273 |  | 0.519 | 0.499 | 0.527 | 0.517 | 0.493
16 | HOP-62 | 0.868 | 0.833 | 0.872 | 1.03 | 0.722 | 1.15 |  | 0.956 | 1.16 | 0.711 | 0.521 | 0.606 | 0.739 | 0.724 | 0.946 | 0.602 | 0.768 | 0.517
17 | SW 1573 | 0.667 | 0.664 | 0.51 | 0.493 | 0.578 | 1.16 | 0.97 | 0.928 | 1.07 | 0.717 | 0.481 | 0.453 | 0.548 | 0.368 | 0.521 | 0.451 | 0.656 | 0.598
18 | NCI-H1993 | 0.527 | 0.526 | 0.509 | 0.567 | 0.592 | 0.94 | 0.74 | 0.706 | 0.852 | 0.649 | 0.7 | 1.35 | 0.583 | 0.778 | 0.805 | 0.71 | 0.858 | 0.825
